Literature values as cited in US10548906B2, “Methods of promoting hepatic regeneration” (Intercept Pharmaceuticals, Inc., priority 2015, dated 2020).

Assays:
Ntcp = conditions: mice with intrahepatic (but not extrahepatic) cholestasis; cited from earlier work
cholestatic animals = conditions: cited from earlier work
mice = conditions: diet enriched with cholic acid, FXR dependent; cited from earlier work

## CC(C)c1onc(-c2c(Cl)cccc2Cl)c1COc1ccc(/C=C/c2cccc(C(=O)O)c2)c(Cl)c1 [GW4064]
Ntcp
  Ntcp regulation: loss of Ntcp suppression

## C[C@H](CCC(=O)O)[C@H]1CC[C@H]2[C@@H]3[C@@H](O)C[C@@H]4C[C@H](O)CC[C@]4(C)[C@H]3CC[C@]12C [ursodeoxycholic acid]
Cholestatic animals
  biliary injury: increase in biliary injury

## Cc1c(-c2cnccn2)ssc1=S [oltipraz]
Cholestatic animals
  biliary injury: increase in biliary injury

## C[C@H](CCC(=O)O)[C@H]1CC[C@H]2[C@@H]3[C@H](O)C[C@@H]4C[C@H](O)CC[C@]4(C)[C@H]3C[C@H](O)[C@]12C [cholic acid]
mice
  liver growth: induced spontaneous liver growth
